Measurements taken from PMC9229919, “4-Aminoquinoline-Based Adamantanes as Potential Anticholinesterase Agents in Symptomatic Treatment of Alzheimer’s Disease” (Pharmaceutics, 2022).
Read-outs that look alike come from different tables or passages of the source.

Tests used:
[1] = Ferric reducing antioxidant power (FRAP) assay; settings: mean ± standard error of three experiments;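 further: expressed as µM Fe2+ equivalents from an FeSO4·7H2O standard curve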
Protocol: . All the chemicals were purchased from Sigma-Aldrich (St. Louis, MO, USA), except for tripyridyltriazine (TPTZ) (Fluka, Buchs, Switzerland) and FeCl3 (Kemika, Zagreb, Croatia). The FRAP assay was assessed according to Benzie and Strain [53] with slight procedure adjustments for 96-well microplates. The method is based on the reduction of the ferric-tripyridyltriazine (Fe^3+-TPTZ) complex to ferrous tripyridyltriazine (Fe^2+-TPTZ) by the action of electron-donating compounds at a low pH. Briefly, the FRAP reagent was prepared by mixing acetate buffer (300 mM, pH 3.6), a solution of 10 mM TPTZ in 40 mM HCl, and 20 mM FeCl3 at 10:1:1 (v/v/v). Then, 240 μL of FRAP reagent and 10 μL of sample solution were added to a 96-well plate and incubated at 37 °C for 60 min. The absorbance was measured at 593 nm using a microplate reader (Infinite M200PRO, Tecan Austria GmbH, Salzburg, Austria) against a blank. The reducing capacity was determined for 10 and 100 µM compound concentrations. […]. All measurements were performed in three independent experiments. FRAP values, denominating the reduction of ferric-tripyridyltriazine (Fe^3+-TPTZ) to ferrous tripyridyltriazine (Fe^2+-TPTZ) by 4-aminoquinolines were calculated based on a standard curve obtained using […].

recombinant human AChE = molecular target: T1, recombinant human AChE (Homo sapiens, UniProt P22303); assay: biochemical; format: biochemical; settings: for IS: IS = Ki(BChE)/Ki(AChE), IS > 1 selective to AChE
T1 construct: gift of Dr Florian Nachon (Armed Forces Biomedical Research Institute, Brétigny-sur-Orge, France)
T1 sequence (P22303 32-614): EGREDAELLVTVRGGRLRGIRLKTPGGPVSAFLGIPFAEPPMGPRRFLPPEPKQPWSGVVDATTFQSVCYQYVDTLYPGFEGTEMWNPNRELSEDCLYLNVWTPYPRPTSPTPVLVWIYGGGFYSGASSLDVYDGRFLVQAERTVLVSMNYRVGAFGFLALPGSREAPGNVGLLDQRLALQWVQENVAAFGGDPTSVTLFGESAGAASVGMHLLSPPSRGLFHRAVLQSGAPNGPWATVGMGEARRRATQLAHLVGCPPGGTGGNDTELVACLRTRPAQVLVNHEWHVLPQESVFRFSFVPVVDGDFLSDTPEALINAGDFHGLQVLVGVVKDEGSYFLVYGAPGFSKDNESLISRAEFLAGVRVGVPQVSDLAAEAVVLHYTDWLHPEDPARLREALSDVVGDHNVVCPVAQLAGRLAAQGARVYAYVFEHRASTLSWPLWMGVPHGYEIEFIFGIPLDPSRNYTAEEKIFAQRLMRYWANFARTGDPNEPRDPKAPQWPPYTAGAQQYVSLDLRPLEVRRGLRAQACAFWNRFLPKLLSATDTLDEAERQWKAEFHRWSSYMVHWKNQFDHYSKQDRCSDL
Protocol: (§1) Acetylthiocholine (ATCh) and 5,5′-dithiobis(2-nitrobenzoic acid) (DTNB) were purchased from Sigma-Aldrich, St. Louis, MO, USA. ATCh was dissolved in water and DTNB in 0.1 M sodium phosphate buffer (pH 7.4). The 4-aminoquinilines were dissolved in DMSO and all further dilutions were made in water.
(§2) The sources of AChE and BChE were purified human BChE and recombinant human AChE that was kindly provided by Dr Florian Nachon (Département de Toxicologie, Armed Forces Biomedical Research Institute, Brétigny-sur-Orge, France). […] The enzymes were diluted in sodium phosphate buffer 0.1 M (pH 7.4) containing 0.1% BSA.
(§3) Enzyme activities were measured spectrophotometrically using a slightly modified Ellman method, as described earlier. […] At least three inhibitor concentrations for each substrate concentration were used in at least three experiments. The apparent inhibition constant (Ki,app) was calculated using the Hunter–Downs Equation and linear regression analysis:(1) Ki,app=vi·i/v0−vi=Ki+Ki/KS·s where the y-intercept determines the enzyme-inhibitor dissociation constant (Ki), while the x-intercept determines the enzyme-substrate dissociation constant, KS.
(§4) The Hunter–Downs Equation was used under the assumption that the substrate, due to relatively low concentrations used in experiments, would bind only to the catalytic site of the enzymes, while the inhibitors would bind to both CAS and/or PAs. This allowed the type of inhibition to be determined from Ki,app vs. substrate concentration ([S]) dependency on Hunter–Downs plot.
(§5) The final content of DMSO in the measurements was up to 0.2%. […] The measurements were performed at 25 °C on a Tecan Infinite M200Pro plate reader (Tecan Austria GmbH, Salzburg, Austria).

purified human BChE = molecular target: T2, purified human BChE (Homo sapiens, UniProt P06276); assay: biochemical; format: biochemical
T2 construct: possibly also a gift of Dr Florian Nachon (the sentence is ambiguous)
T2 sequence (P06276 29-602): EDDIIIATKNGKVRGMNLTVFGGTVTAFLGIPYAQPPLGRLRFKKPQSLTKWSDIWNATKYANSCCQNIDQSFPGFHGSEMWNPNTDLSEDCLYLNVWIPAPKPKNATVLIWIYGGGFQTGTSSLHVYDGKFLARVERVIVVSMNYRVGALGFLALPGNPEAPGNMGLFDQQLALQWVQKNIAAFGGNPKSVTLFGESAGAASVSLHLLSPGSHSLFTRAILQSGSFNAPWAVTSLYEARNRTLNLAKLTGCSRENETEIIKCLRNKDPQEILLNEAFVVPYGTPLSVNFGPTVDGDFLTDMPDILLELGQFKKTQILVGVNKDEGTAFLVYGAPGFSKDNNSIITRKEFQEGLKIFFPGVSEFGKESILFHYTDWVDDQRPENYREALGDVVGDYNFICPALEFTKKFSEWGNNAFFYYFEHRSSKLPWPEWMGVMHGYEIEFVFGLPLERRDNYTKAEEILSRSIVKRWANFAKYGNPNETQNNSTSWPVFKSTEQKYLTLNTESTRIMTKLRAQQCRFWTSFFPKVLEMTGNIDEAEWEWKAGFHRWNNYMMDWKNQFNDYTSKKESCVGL
Protocol: as §1, §2, §3, §4, §5

[2] = Reverse-phase thin-layer chromatographic lipophilicity (RF, RM0); format: physicochemical; settings: for RM0: intercept of RM = RM0 + bC; for b: slope of RM = RM0 + bC; for RF, Methanol/Water/Hydrochloric acid (conc.), mobile phase I / RF, Dioxane/Water/Hydrochloric acid (conc.), mobile phase II / RF, Methanol/Water/Hydrochloric acid (conc.), mobile phase II / RF, Acetone/Water/Hydrochloric acid (conc.), mobile phase III / RF, Dioxane/Water/Hydrochloric acid (conc.), mobile phase III / RF, Methanol/Water/Hydrochloric acid (conc.), mobile phase III / RF, Dioxane/Water/Hydrochloric acid (conc.), mobile phase IV / RF, Acetone/Water/Hydrochloric acid (conc.), mobile phase IV / RF, Methanol/Water/Hydrochloric acid (conc.), mobile phase IV / RF, Acetone/Water/Hydrochloric acid (conc.), mobile phase IX / RF, Methanol/Water/Hydrochloric acid (conc.), mobile phase IX / RF, Dioxane/Water/Hydrochloric acid (conc.), mobile phase V / RF, Acetone/Water/Hydrochloric acid (conc.), mobile phase V / RF, Methanol/Water/Hydrochloric acid (conc.), mobile phase V / RF, Dioxane/Water/Hydrochloric acid (conc.), mobile phase VI / RF, Acetone/Water/Hydrochloric acid (conc.), mobile phase VI / RF, Methanol/Water/Hydrochloric acid (conc.), mobile phase VI / RF, Acetone/Water/Hydrochloric acid (conc.), mobile phase VII / RF, Methanol/Water/Hydrochloric acid (conc.), mobile phase VII / RF, Acetone/Water/Hydrochloric acid (conc.), mobile phase VIII / RF, Methanol/Water/Hydrochloric acid (conc.), mobile phase VIII: RP-18 silica; for RF, Methanol/Water/Hydrochloric acid (conc.), mobile phase I: I = 90%MeOH/5%H2O/5%HCl; for RF, Dioxane/Water/Hydrochloric acid (conc.), mobile phase II: II = 80%Dioxane/15%H2O/5%HCl; for RF, Methanol/Water/Hydrochloric acid (conc.), mobile phase II: II = 85%MeOH/10%H2O/5%HCl; for RF, Acetone/Water/Hydrochloric acid (conc.), mobile phase III: III = 70%AC/25%H2O/5%HCl; for RF, Dioxane/Water/Hydrochloric acid (conc.), mobile phase III: III = 70%Dioxane/25%H2O/5%HCl; for RF, Methanol/Water/Hydrochloric acid (conc.), mobile phase III: III = 80%MeOH/15%H2O/5%HCl; for RF, Dioxane/Water/Hydrochloric acid (conc.), mobile phase IV: IV = 60%Dioxane/35%H2O/5%HCl; for RF, Acetone/Water/Hydrochloric acid (conc.), mobile phase IV: IV = 65%AC/30%H2O/5%HCl; for RF, Methanol/Water/Hydrochloric acid (conc.), mobile phase IV: IV = 75%MeOH/20%H2O/5%HCl; for RF, Acetone/Water/Hydrochloric acid (conc.), mobile phase IX: IX = 40%AC/55%H2O/5%HCl; for RF, Methanol/Water/Hydrochloric acid (conc.), mobile phase IX: IX = 50%MeOH/45%H2O/5%HCl; for RF, Dioxane/Water/Hydrochloric acid (conc.), mobile phase V: V = 50%Dioxane/45%H2O/5%HCl; for RF, Acetone/Water/Hydrochloric acid (conc.), mobile phase V: V = 60%AC/35%H2O/5%HCl; for RF, Methanol/Water/Hydrochloric acid (conc.), mobile phase V: V = 70%MeOH/25%H2O/5%HCl; for RF, Dioxane/Water/Hydrochloric acid (conc.), mobile phase VI: VI = 40%Dioxane/55%H2O/5%HCl; for RF, Acetone/Water/Hydrochloric acid (conc.), mobile phase VI: VI = 55%AC/40%H2O/5%HCl; for RF, Methanol/Water/Hydrochloric acid (conc.), mobile phase VI: VI = 65%MeOH/30%H2O/5%HCl; for RF, Acetone/Water/Hydrochloric acid (conc.), mobile phase VII: VII = 50%AC/45%H2O/5%HCl; for RF, Methanol/Water/Hydrochloric acid (conc.), mobile phase VII: VII = 60%MeOH/35%H2O/5%HCl; for RF, Acetone/Water/Hydrochloric acid (conc.), mobile phase VIII: VIII = 45%AC/50%H2O/5%HCl; for RF, Methanol/Water/Hydrochloric acid (conc.), mobile phase VIII: VIII = 55%MeOH/40%H2O/5%HCl
Protocol: Chromatographic determination of lipophilicity
Merck, Darmstadt, Germany). The mobile phase contained organic modifier (methanol, acetone or dioxane), water and hydrochloric acid.
Methanol was varied in the range […]
with an increment of 10%. […]
before chromatogram development. The solvent developing distance was 4.5 cm. Detection of […]
All experiments were performed at ambient temperature (22±2 °C). Retention parameters were calculated as previously described. […]

[3] = log (Ki/µM AChE), read-out: Y Measured 1 log(ki)Ache (converted)
[4] = ± standard error, 25 °C, ATCh substrate, read-out: Ki AChE
[5] = logarithm of Ki in µM, BChE, dependent variable of the QSAR model, read-out: Y Measured 2 log(ki)Bche, log (Ki/µM BChE) (converted)
[6] = ± standard error, 25 °C, ATCh substrate, read-out: Ki BChE
[7] = Acetone/Water/Hydrochloric acid (conc.)
[8] = Dioxane/Water/Hydrochloric acid (conc.)
[9] = Methanol/Water/Hydrochloric acid (conc.)

SMILES	FRAP ([1]; 100 µM compound) [µM]	IS (recombinant human AChE)	Ki (recombinant human AChE; [3]) [µM]	Ki (recombinant human AChE; [4]) [µM]	Ki (purified human BChE; [5]) [µM]	Ki (purified human BChE; [6]) [µM]	FRAP ([1]; 10 µM compound) [µM]	RM0 [2, 7]	b [2, 7]	RM0 [2, 8]	b [2, 8]	RM0 [2, 9]	b [2, 9]	RF, Methanol/Water/Hydrochloric acid (conc.), mobile phase I [2]	RF, Dioxane/Water/Hydrochloric acid (conc.), mobile phase II [2]	RF, Methanol/Water/Hydrochloric acid (conc.), mobile phase II [2]	RF, Acetone/Water/Hydrochloric acid (conc.), mobile phase III [2]	RF, Dioxane/Water/Hydrochloric acid (conc.), mobile phase III [2]	RF, Methanol/Water/Hydrochloric acid (conc.), mobile phase III [2]	RF, Dioxane/Water/Hydrochloric acid (conc.), mobile phase IV [2]	also measured
Cc1cc(C(C)(C)C)c(O)c(C(C)(C)C)c1 [BHT, butylated hydroxytoluene, reference compound]	3021 ± 117																				
Clc1ccc2c(NCCNCC34CC5CC(CC(C5)C3)C4)ccnc2c1 [Compound 1]	20 ± 4	1.8	1.2	1.2 ± 0.1	2.1	2.1 ± 0.2	2.4 ± 1.3	1.738	2.883	0.8129	1.796	2.081	2.812	0.72	0.78	0.68	0.62	0.73	0.54	0.73	less potent inhibitors of BChE than compounds 3 or 4 (purified human BChE): about 3.2 times; RF, Acetone/Water/Hydrochloric acid (conc.), mobile phase IV [2]: 0.59; RF, Methanol/Water/Hydrochloric acid (conc.), mobile phase IV [2]: 0.55; RF, Acetone/Water/Hydrochloric acid (conc.), mobile phase IX [2]: 0.16; RF, Methanol/Water/Hydrochloric acid (conc.), mobile phase IX [2]: 0.15; RF, Dioxane/Water/Hydrochloric acid (conc.), mobile phase V [2]: 0.55; RF, Acetone/Water/Hydrochloric acid (conc.), mobile phase V [2]: 0.51; RF, Methanol/Water/Hydrochloric acid (conc.), mobile phase V [2]: 0.48; RF, Dioxane/Water/Hydrochloric acid (conc.), mobile phase VI [2]: 0.4; RF, Acetone/Water/Hydrochloric acid (conc.), mobile phase VI [2]: 0.41; RF, Methanol/Water/Hydrochloric acid (conc.), mobile phase VI [2]: 0.43; RF, Acetone/Water/Hydrochloric acid (conc.), mobile phase VII [2]: 0.36; RF, Methanol/Water/Hydrochloric acid (conc.), mobile phase VII [2]: 0.28; RF, Acetone/Water/Hydrochloric acid (conc.), mobile phase VIII [2]: 0.32; RF, Methanol/Water/Hydrochloric acid (conc.), mobile phase VIII [2]: 0.22
Clc1ccc2c(NCCCCNCC34CC5CC(CC(C5)C3)C4)ccnc2c1 [Compound 3]	38 ± 6	0.9	1	1	0.92	0.92 ± 0.04	0	1.838	3.04	0.7921	1.783	2.348	3.092	0.71	0.78	0.65	0.63	0.74	0.51	0.74	RF, Acetone/Water/Hydrochloric acid (conc.), mobile phase IV [2]: 0.58; RF, Methanol/Water/Hydrochloric acid (conc.), mobile phase IV [2]: 0.53; RF, Acetone/Water/Hydrochloric acid (conc.), mobile phase IX [2]: 0.15; RF, Methanol/Water/Hydrochloric acid (conc.), mobile phase IX [2]: 0.11; RF, Dioxane/Water/Hydrochloric acid (conc.), mobile phase V [2]: 0.55; RF, Acetone/Water/Hydrochloric acid (conc.), mobile phase V [2]: 0.51; RF, Methanol/Water/Hydrochloric acid (conc.), mobile phase V [2]: 0.44; RF, Dioxane/Water/Hydrochloric acid (conc.), mobile phase VI [2]: 0.41; RF, Acetone/Water/Hydrochloric acid (conc.), mobile phase VI [2]: 0.41; RF, Methanol/Water/Hydrochloric acid (conc.), mobile phase VI [2]: 0.37; RF, Acetone/Water/Hydrochloric acid (conc.), mobile phase VII [2]: 0.35; RF, Methanol/Water/Hydrochloric acid (conc.), mobile phase VII [2]: 0.25; RF, Acetone/Water/Hydrochloric acid (conc.), mobile phase VIII [2]: 0.3; RF, Methanol/Water/Hydrochloric acid (conc.), mobile phase VIII [2]: 0.18
